{"source": "paper PMC6366974", "about": "“The curcumin analog EF24 is a novel senolytic agent” (Aging (Albany NY), 2019)", "key": {"[1]": {"tested_on": "HREC IR-SCs", "assay": "Cell viability assay (flow cytometry, PI)", "format": "cell-based", "details": "Homo sapiens, 72 h"}, "[2]": {"tested_on": "IMR-90 fibroblasts IR-SCs", "assay": "Cell viability assay (flow cytometry, PI)", "format": "cell-based", "details": "Homo sapiens, IMR-90, 72 h"}, "[3]": {"tested_on": "WI-38 NCs", "assay": "ROS measurement (DHR staining, flow cytometry)", "format": "cell-based, human", "details": "2 µM, 3 h and 6 h, DHR MFI", "procedure": "(§1) WI-38 NCs and IR-SCs were incubated with vehicle or 2 µM EF24 for 3, 6, 24, or 72 h. After removal of suspension cells, adherent cells were detached using 0.25% Trypsin-EDTA at 37°C for 5 min. They were rinsed with DMEM once and then incubated with pre-warmed DMEM medium containing 1 µM dihydrorhodamine 123 (DHR, Cat. No. D23806, Thermo Fisher Scientific, Waltham, MA, USA) at 37°C for 30 min in dark. After washing in 4 mL DMEM with 100 ng/mL PI, cells were centrifuged immediately at 1,000 r.p.m. for 5 min to remove PI and re-suspended in DMEM medium for flow cytometry analysis. Mean fluorescence intensity (MFI) of PI negative cells was determined using the BD LSR II flow cytometer."}, "[4]": {"tested_on": "WI-38 IR-SCs", "assay": "ROS measurement (DHR staining, flow cytometry)", "format": "cell-based, human", "details": "2 µM, 3 h and 6 h, DHR MFI", "procedure": "as §1"}}, "note": "pEC50: −log10 of the molar value."}
{"smiles": "O=C1/C(=C/c2ccccc2F)CNC/C1=C\\c1ccccc1F", "note": "[EF24]", "values": [{"measurement": "pEC50", "setting": "[1]", "result": 5.94}, {"measurement": "pEC50", "setting": "[2]", "result": 5.76}, {"measurement": "ROS production in NCs", "setting": "[3]", "result": "did not increase ROS production"}, {"measurement": "ROS production in IR-SCs", "setting": "[4]", "result": "did not increase ROS production"}]}
